Results as given in US6605609B2, “Thizaine oxazolidinone” (Pharmacia & Upjohn Company, priority 2000, dated 2003).
Converted amounts (≈) assume the structure as drawn.

Experiments:
[1] = system: S. aureus (52 isolates), methicillin-resistant; assay: MIC by agar dilution (MIC90); format: cell-based, Staphylococcus aureus; details: minimum inhibitory concentration required to inhibit 90% of the isolates
From the text: The in vitro activity of the compound of this invention can be assessed by standard testing procedures such as the determination of minimum inhibitory concentration (MIC) by agar dilution as described in “Approved Standard. Methods for Dilution Antimicrobial Susceptibility Tests for Bacteria That Grow Aerobically”, 3rd. ed., published 1993 by the National Committee for Clinical Laboratory Standards, Villanova, Pa., USA.

[2] = Loss during and following terminal moist heat sterilization in container; format: physicochemical; details: container-solution contact surface made of at least 50% polyolefin
From the text: When terminally moist heat sterilizing an IV solution, the solution is placed in the container in which (1) it will be stored and then transferred to the container from which it will ultimately be administered, or (2) stored and then ultimately administered from the same container to deliver the IV solution to the patient. […] What is essential is that the container-solution contact surface material be primarily a polyolefin; the remainder of the container can be made from polyolefin or other materials. It is preferred that the container-solution contact surface is made of from about 50 to about 100% polyolefin. It is more preferred that the container-solution contact surface is made of from about 70 to about 90% polyolefin. It is more preferred that the container-solution contact surface is made of from about 80% polyolefin. It is even more preferred that the container-solution contact surface is made of polyolefin.

Row | MIC90 S. aureus (52 isolates), methicillin-resistant [1] [µg/mL] | loss of the compound during and following terminal moist heat sterilization [2] | melting point [°C] | Structure (SMILES)
1 | 2 | significantly much less loss | 187 to 189.5 | CC(=O)NC[C@H]1CN(c2cc(F)c(N3CCS(=O)(=O)CC3)c(F)c2)C(=O)O1 [The compound of formula I, N-({(5S)-3-[4-(1,1-dioxido-4-thiomorpholinyl)-3,5-difluorophenyl]-2-oxo-1,3-oxazolidin-5-yl}methyl)acetamide]
2 | 4 (≈ 11.9 µM) |  |  | CC(=O)NC[C@H]1CN(c2ccc(N3CCOCC3)c(F)c2)C(=O)O1 [linezolid, reference compound]
